In assay [1] the target is T1, heterodimerization of p66 and p51 (Human immunodeficiency virus type 1 group M subtype B, UniProt P12497).
T1 construct: active form of HIV-1 RT is a heterodimer containing two polypeptides, p66 and p51
Conditions: literature comparison values; cited from earlier work.

The target of assay [2] is T2, His-p51/FLAG-p66 RT heterodimer (Human immunodeficiency virus type 1 group M subtype B, UniProt P12497).
T2 construct: The gene for the 66 kDa subunit of HIV-1 RT; The gene for the 51 kDa subunit of HIV-1 RT; made in house; host or cells: E. coli
In words: Microplate eTag assay to monitor p66-p51 RT dimerization, in the presence of drugs. The conditions noted are these: drug concentration varied from 0 μM to 100 μM; released eTag quantitated; read-out: IC50 (heterodimerization of p66 and p51). It is filed as binding. The procedure: The assay was performed by first capturing His-tagged p51 on Ni^2+-NTA microplates, and then adding FLAG-tagged p66 to form the heterodimer. To the heterodimer complex was added a solution of eTag covalently linked to FLAG antibodies resulting His-p51/FLAG-p66 RT heterodimer complexed to an eTag immobilized on the microplates. After washing to remove unbound material, the eTag was cleaved by the addition of methylene blue, and the amount of released eTags was measured and quantitated by electrophoretic separation.

pIC50: −log10 of the molar value.

Usually pIC50 stands for the negative decadic logarithm of the IC50, by convention in mol/L.

“[2′,5′-bis-o-(butyldimethylsilyl)-3′-spiro 5′-(4′-amino-1′,2′-oxothiole-2′,2′-dioxide] [TSAO]”: the results for the negative-log IC50 (pIC50) in assay [1] and in assay [2] were 5.17 and 5.19, respectively.
As to calmodulin [CAM], the pIC50 in assay [1] was 5.72; in assay [2], 5.43.

The record behind these values is patent US20120003667A1, “ELECTROPHORETIC TAG-BASED IN VITRO ASSAY TO QUANTIFY DIMERIZATION OF P66 AND P51 SUB-UNITS OF HIV-1 REVERSE TRANSCRIPTASE (RT)” (priority 2007, published 2012).
